From patent US10947284B2, “Fusion molecules” (Pieris Pharmaceuticals GMBH, priority 2015, dated 2021)
Starred links: 1 amine or outer side, 2 acyl side, 3 side chain; linkers in the order of their positions; H or OH if unused. Non-standard residues stand in square brackets, D forms with d. Residues, ends and D or L forms follow the SMILES beside them. *: point of attachment. X1 = O=C([C@@H]1CCNc2c(N[*:1])cc3cc(O)c(O)cc3[n+]21)[*:2]; dOrn(N5-OH,N5-CHO) = N[C@H](CCCN(O)C=O)C(=O)O; Butanoyl(2-oxo,4-COOH) = O=C(O)CCC(=O)C(=O)*; d(aThr) = C[C@@H](O)[C@@H](N)C(=O)O; X2 = O=C1[C@@H](N*)CCCN1[O-]; X3 = O=C1[C@@H](N*)CCCN1O; Orn = NCCC[C@H](N)C(=O)O

What was measured:
[1] = target: T1, hNGAL (human lipocalin 2, parent wild type SEQ ID NO: 1) mutein SEQ ID NO: 19 (Homo sapiens, UniProt P80188, A60E/C107S/D97N/I61V/K154W/K93N/L123Q/L56V/L90R/Q48H/Q69G/R101E/R92H/S147K/S88E/W99S/Y120N/Y126M/Y152G/Y72P); assay: Solution binding ELISA
T1 construct: made in house; host or cells: E. coli
T1 sequence (P80188 other isoform, or with tags, fused parts or gaps with the stated changes): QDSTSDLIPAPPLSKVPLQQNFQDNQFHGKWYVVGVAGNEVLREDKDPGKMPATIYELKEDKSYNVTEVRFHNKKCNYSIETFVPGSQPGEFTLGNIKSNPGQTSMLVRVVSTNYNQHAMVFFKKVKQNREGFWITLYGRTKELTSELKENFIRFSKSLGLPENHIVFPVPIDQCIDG
Protocol: (§5) The residual supernatants were discarded and 20 μl HRP-labeled anti-hNGAL antibody was added at a predetermined optimal concentration in PBS-T/BSA and incubated for 1 h at RT. […] After washing, 20 μl fluorogenic HRP substrate (QuantaBlu, Thermo) was added to each well, and the reaction was allowed to proceed for 15 to 60 minutes. The fluorescence intensity of every well on the plate was read using a fluorescence microplate reader (Tecan or Molecular Devices). […] Curve fitting was performed using GraphPad Prism 4 software.

[2] = target: T2, hNGAL (human lipocalin 2, parent wild type SEQ ID NO: 1) mutein SEQ ID NO: 20 (Homo sapiens, UniProt P80188, A60T/C107S/D97H/K145I/K154W/K93M/L123T/L90R/N116I/Q48H/Q69G/R101E/R92I/S147R/S88D/W99Y/Y120N/Y126Q/Y152M/Y72N); conditions: solution binding ELISA
T2 construct: made in house; host or cells: E. coli
T2 sequence (P80188 other isoform, or with tags, fused parts or gaps with the stated changes): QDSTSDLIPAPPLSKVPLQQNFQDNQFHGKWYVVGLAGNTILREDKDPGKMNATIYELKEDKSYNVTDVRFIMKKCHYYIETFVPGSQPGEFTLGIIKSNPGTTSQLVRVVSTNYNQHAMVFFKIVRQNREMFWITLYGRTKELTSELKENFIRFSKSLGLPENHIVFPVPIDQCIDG
Protocol: as §5

[3] = target: T3, hNGAL (human lipocalin 2, parent wild type SEQ ID NO: 1) mutein SEQ ID NO: 26 (Homo sapiens, UniProt P80188, A60E/C107S/D97N/E64D/I61V/K145N/K154W/K93N/L123V/L56V/L90R/N116K/Q48H/Q69G/R101E/R92H/S147K/S88E/W99S/Y120N/Y126M/Y152G/Y72P); assay: Solution binding ELISA
T3 construct: made in house; host or cells: E. coli
T3 sequence (P80188 other isoform, or with tags, fused parts or gaps with the stated changes): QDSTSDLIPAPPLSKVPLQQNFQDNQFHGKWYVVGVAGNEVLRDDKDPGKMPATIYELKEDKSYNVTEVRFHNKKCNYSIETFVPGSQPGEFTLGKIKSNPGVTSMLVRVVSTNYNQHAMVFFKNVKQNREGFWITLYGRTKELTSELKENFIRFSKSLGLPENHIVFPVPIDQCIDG
Protocol: as §5

[4] = target: T4, hNGAL (human lipocalin 2, parent wild type SEQ ID NO: 1) mutein SEQ ID NO: 27 (Homo sapiens, UniProt P80188, A60T/C107S/D97N/E64D/I61V/K154W/K93N/L123Q/L56V/L90R/Q48H/Q69G/R101E/R92H/S147K/S88E/W99S/Y126M/Y152V/Y72P); assay: Solution binding ELISA
T4 construct: made in house; host or cells: E. coli
T4 sequence (P80188 other isoform, or with tags, fused parts or gaps with the stated changes): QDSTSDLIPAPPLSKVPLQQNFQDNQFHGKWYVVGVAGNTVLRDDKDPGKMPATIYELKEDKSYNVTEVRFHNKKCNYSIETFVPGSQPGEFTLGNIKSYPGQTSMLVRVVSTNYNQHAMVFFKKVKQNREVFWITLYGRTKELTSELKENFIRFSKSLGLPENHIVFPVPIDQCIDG
Protocol: as §5

[5] = target: T5, hNGAL (human lipocalin 2, parent wild type SEQ ID NO: 1) mutein SEQ ID NO: 28 (Homo sapiens, UniProt P80188, A60T/C107S/D97N/E64D/I61V/K154W/L123Q/L56V/L90R/N116K/Q48H/Q69G/R101E/R92H/S147K/S88E/W99F/Y120H/Y126M/Y152A/Y72P); assay: Solution binding ELISA
T5 construct: made in house; host or cells: E. coli
T5 sequence (P80188 other isoform, or with tags, fused parts or gaps with the stated changes): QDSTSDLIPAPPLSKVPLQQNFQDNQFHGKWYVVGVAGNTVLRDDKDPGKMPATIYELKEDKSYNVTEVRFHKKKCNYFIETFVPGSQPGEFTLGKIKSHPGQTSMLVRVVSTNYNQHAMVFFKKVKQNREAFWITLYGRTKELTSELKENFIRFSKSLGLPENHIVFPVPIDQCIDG
Protocol: as §5

[6] = target: T6, hNGAL (human lipocalin 2, parent wild type SEQ ID NO: 1) mutein SEQ ID NO: 29 (Homo sapiens, UniProt P80188, A60Q/C107S/D97N/E64D/I61V/K154W/K93N/L123H/L56V/L90R/Q48H/Q69G/R101E/R92H/S147K/S88E/Y120N/Y126M/Y152G/Y72P); assay: Solution binding ELISA
T6 construct: made in house; host or cells: E. coli
T6 sequence (P80188 other isoform, or with tags, fused parts or gaps with the stated changes): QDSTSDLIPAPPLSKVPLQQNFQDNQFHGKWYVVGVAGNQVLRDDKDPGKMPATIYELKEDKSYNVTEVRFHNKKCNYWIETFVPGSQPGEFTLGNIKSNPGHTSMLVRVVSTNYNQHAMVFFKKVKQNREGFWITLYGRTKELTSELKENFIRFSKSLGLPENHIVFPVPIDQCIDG
Protocol: as §5

[7] = target: T7, hNGAL (human lipocalin 2, parent wild type SEQ ID NO: 1) mutein SEQ ID NO: 30 (Homo sapiens, UniProt P80188, A60T/C107S/D97H/K145I/K154W/K93F/L123M/L56V/L90R/Q48H/Q69G/R101D/R92I/S147R/S88D/W99Y/Y126Q/Y152I/Y72N); assay: Solution binding ELISA
T7 construct: made in house; host or cells: E. coli
T7 sequence (P80188 other isoform, or with tags, fused parts or gaps with the stated changes): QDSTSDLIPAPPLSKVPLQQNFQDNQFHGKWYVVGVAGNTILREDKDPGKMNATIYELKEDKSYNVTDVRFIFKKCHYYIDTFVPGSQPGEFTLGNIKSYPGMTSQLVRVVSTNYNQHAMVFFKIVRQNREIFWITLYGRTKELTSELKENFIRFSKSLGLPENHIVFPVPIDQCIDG
Protocol: as §5

[8] = target: T8, hNGAL (human lipocalin 2, parent wild type SEQ ID NO: 1) mutein SEQ ID NO: 31 (Homo sapiens, UniProt P80188, A60T/C107S/D97H/K145I/K154W/K93R/L123T/L56V/L90R/Q48H/Q69G/R101D/R92I/S147R/S88D/W99Y/Y126Q/Y152I/Y72N); assay: Solution binding ELISA
T8 construct: made in house; host or cells: E. coli
T8 sequence (P80188 other isoform, or with tags, fused parts or gaps with the stated changes): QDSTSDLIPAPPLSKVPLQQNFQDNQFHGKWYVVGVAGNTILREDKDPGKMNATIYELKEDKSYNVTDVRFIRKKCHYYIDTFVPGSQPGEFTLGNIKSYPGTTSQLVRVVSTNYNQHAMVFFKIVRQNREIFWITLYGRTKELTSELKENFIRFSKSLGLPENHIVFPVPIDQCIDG
Protocol: as §5

[9] = target: T9, hNGAL (human lipocalin 2, parent wild type SEQ ID NO: 1) mutein SEQ ID NO: 34 (Homo sapiens, UniProt P80188, A60T/C107S/D97H/K145I/K154W/K93R/L123T/L56V/L90R/N85D/Q48H/Q69G/R101D/R92I/S147R/S88D/T74A/W99Y/Y126Q/Y152I/Y72N); assay: Solution binding ELISA; conditions: Example 5
T9 construct: made in house; host or cells: E. coli
T9 sequence (P80188 other isoform, or with tags, fused parts or gaps with the stated changes): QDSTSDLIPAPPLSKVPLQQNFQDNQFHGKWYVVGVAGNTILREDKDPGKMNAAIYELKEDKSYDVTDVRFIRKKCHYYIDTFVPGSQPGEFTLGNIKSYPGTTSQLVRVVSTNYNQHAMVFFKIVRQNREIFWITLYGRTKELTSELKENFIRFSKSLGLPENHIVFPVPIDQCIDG
Protocol: as §5

[10] = target: T10, Fusion molecule SEQ ID NO: 134 (hNGAL muteins SEQ ID NOs: 36, 16, 53 and 62) (Homo sapiens, UniProt P80188, A60T/C107S/D97H, form not given/K145I/K154W/K93R/L123T/L56V/L90R/N85D/Q69G/R101D/R92I/S147R/S88D/T74A/W99Y/Y126Q/Y152I/Y72N); assay: Solution binding ELISA; conditions: binding to target in solution, tracer 0.1 nM, Table 11
T10 construct: made in house
T10 sequence (P80188 with tags, fused parts or gaps with the stated changes, form open): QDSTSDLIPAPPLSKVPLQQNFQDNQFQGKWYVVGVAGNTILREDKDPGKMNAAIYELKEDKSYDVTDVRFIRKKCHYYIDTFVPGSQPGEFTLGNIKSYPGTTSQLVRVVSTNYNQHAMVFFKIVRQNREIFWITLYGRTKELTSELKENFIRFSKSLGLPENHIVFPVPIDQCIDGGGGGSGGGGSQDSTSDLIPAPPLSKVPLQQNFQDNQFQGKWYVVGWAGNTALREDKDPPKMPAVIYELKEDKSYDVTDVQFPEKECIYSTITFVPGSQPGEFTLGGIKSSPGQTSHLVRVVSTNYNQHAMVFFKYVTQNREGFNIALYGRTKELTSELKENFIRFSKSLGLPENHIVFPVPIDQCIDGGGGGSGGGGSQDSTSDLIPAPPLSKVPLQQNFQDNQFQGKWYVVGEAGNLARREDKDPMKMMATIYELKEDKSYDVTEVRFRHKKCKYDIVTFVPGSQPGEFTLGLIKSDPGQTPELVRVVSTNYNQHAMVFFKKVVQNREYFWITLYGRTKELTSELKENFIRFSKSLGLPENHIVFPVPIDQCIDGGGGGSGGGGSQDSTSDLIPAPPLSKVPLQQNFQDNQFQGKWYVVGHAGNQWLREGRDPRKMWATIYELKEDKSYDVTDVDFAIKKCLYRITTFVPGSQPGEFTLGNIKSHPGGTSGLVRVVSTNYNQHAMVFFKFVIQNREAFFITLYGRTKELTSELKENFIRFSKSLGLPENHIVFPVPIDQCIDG

[11] = target: T11, Fusion molecule SEQ ID NO: 134 (hNGAL muteins SEQ ID NOs: 36, 16, 53 and 62) (Homo sapiens, UniProt P80188, A60T/C107S/D97H, form not given/K145I/K154W/K93R/L123T/L56V/L90R/N85D/Q69G/R101D/R92I/S147R/S88D/T74A/W99Y/Y126Q/Y152I/Y72N); assay: Surface plasmon resonance (Biacore T200); format: binding; conditions: Biacore, 25° C., Table 13
T11 construct: made in house; host or cells: HEK293
T11 sequence (P80188 with tags, fused parts or gaps with the stated changes, form open): as above

[12] = target: T12, hNGAL (human lipocalin 2, parent wild type SEQ ID NO: 1) mutein SEQ ID NO: 56 (Homo sapiens, UniProt P80188, A60F/C107S/D97A/I61H/K145G/K154V/K93A/L123M/L56M/L90P/N116A/Q48H/Q69S/R101I/R92W/S147W/S88H/W99K/Y120G/Y126W/Y152T/Y72P); assay: Solution binding ELISA
T12 construct: made in house; host or cells: E. coli
T12 sequence (P80188 21-198 with the stated changes): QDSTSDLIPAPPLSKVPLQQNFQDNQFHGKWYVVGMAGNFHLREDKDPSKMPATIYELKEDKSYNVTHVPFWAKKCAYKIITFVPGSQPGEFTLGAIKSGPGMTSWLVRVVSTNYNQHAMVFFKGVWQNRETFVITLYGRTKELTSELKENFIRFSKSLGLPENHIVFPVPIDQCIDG
Protocol: as §5

[13] = target: T13, hNGAL (human lipocalin 2, parent wild type SEQ ID NO: 1) mutein SEQ ID NO: 57 (Homo sapiens, UniProt P80188, A60Y/C107S/D97R/I61W/K145L/K154N/K93R/L123Q/L56V/L90R/N116P/Q48H/Q69A/R101W/R92W/S147R/S88D/W99D/Y120E/Y126R/Y152A); assay: Solution binding ELISA
T13 construct: made in house; host or cells: E. coli
T13 sequence (P80188 21-198 with the stated changes): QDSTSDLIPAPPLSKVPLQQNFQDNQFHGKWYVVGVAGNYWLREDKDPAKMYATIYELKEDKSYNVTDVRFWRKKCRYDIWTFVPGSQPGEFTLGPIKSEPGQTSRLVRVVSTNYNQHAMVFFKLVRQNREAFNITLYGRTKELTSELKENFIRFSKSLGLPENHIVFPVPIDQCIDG
Protocol: as §5

[14] = target: hNGAL muteins from affinity optimization of SEQ ID NO: 55 (Homo sapiens, UniProt P80188); assay: Solution binding ELISA
hNGAL muteins from affinity optimization of SEQ ID NO: 55, sequence (P80188 21-198, stated change not applied): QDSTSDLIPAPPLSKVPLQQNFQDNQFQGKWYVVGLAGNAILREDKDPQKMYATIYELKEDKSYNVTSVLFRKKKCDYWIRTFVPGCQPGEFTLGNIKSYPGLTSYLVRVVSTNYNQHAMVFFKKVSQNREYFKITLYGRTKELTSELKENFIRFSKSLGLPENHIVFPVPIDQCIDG
Protocol: (§1) Solution binding of muteins was assayed by a “Solution binding ELISA”, the principle of which was as follows: a constant concentration of the tested mutein was incubated with variable concentrations of ligands (Pvd I s, sa, αKG+/−Fe/Pvd II s, sa, αKG+/−Fe/Pvd III s, sa, αKG+/−Fe/Pch+/−Fe) for 1 h. After this pre-incubation in solution, an aliquot of the mutein/ligand mixture was transferred to an ELISA plate with biotinylated Pvd I s (+Fe), Pvd II s (+Fe), Pvd III s (+Fe) or Pch immobilized via Neutravidin to measure the remaining concentration of free muteins. The concentration of free (non ligand-bound) muteins was determined via a quantitative ELISA setup.
(§2) In detail, a 384-well plate suitable for fluorescence measurements (Greiner FLUOTRAC™ 600, black flat bottom, high-binding) was coated with 20 μl of Neutravidin at a concentration of 5 μg/ml in PBS overnight at 4 C. After washing, the Neutravidin-coated wells were blocked with 100 μl blocking buffer containing 0.1% Tween 20 and 2% BSA (PBS-T/BSA) for 1 h at room temperature.
(§3) A fixed concentration of muteins was incubated in solution with varying concentrations of ligand (Pvd I s, sa, αKG+/−Fe/Pvd II s, sa, αKG+/−Fe/Pvd III s, sa, αKG+/−Fe/Pch+/−Fe), using a suitable starting concentration which was serially diluted at a 1:3 ratio down to the picomolar range in PBS-T/BSA. […] To allow for transformation of ELISA readout results into absolute free mutein concentrations, a standard curve containing varying concentrations of muteins was prepared in PBS-T/BSA and incubated for 20 min on the same ELISA plate as well.
(§4) The residual supernatants were discarded and 20 μl HRP-labeled anti-hNGAL antibody was added at a predetermined optimal concentration in PBS-T/BSA and incubated for 1 h at RT. […] The fluorescence intensity of every well on the plate was read using a fluorescence microplate reader (Tecan or Molecular Devices). To evaluate the data, free mutein concentration, c(mutein)free, was calculated based on the standard curve results, and plotted versus ligand concentration, c(Ligand). […]

[15] = target: lipocalin negative control SEQ ID NO: 64 (Homo sapiens, UniProt P80188, C107S/Q48H); assay: Surface plasmon resonance (Biacore T200); format: binding
lipocalin negative control SEQ ID NO: 64, sequence (P80188 21-198 Q48H/C107S): as the sequence (P80188 21-198, stated change not applied) above, with Q28H, C87S counted along it
Protocol: (§6) In a Surface Plasmon Resonance (SPR) based assay a Biacore T200 instrument (GE Healthcare) was used to measure the binding affinity of muteins to pyoverdine I succinyl, -succinamide, -α-ketoglutaryl with complexed iron ion or to pyoverdine II succinyl, -succinamide, -α-ketoglutaryl with complexed iron ion or to pyoverdine III succinyl, -succinamide, -α-ketoglutaryl with complexed iron ion. Muteins selected for binding to pyoverdines and negative control (SEQ ID NO: 64) were biotinylated for 2 h at room temperature applying an appropriate excess of EZ-Link NHS-PEG4-Biotin (Thermo, Cat #21329) followed by separation of non-reacted Biotin using a Zebra Spin Desalting Plate (Thermo, Cat #21329) according to the manufactures instructions.
In the SPR affinity assay, biotinylated muteins and negative control were captured on a sensor chip CAP using the Biotin CAPture Kit (GE Healthcare): Sensor Chip CAP is pre-immobilized with an ssDNA oligo. Undiluted Biotin CAPture Reagent (streptavidin conjugated with the complementary ss-DNA oligo) was applied at a flow rate of 2 μl/min for 300 s. Subsequently, 1 μg/ml to 100 μg/mL of biotinylated muteins or negative control were applied for 300 s at a flow rate of 5 μl/min. The reference channel was loaded with Biotin CAPture Reagent only.
Applying a flow rate of 30 μl/min, a single cycle or multi cycle kinetics approach was used with a sample contact time of 120-180 s and a dissociation time of 900-2400 s. […] After ligand immobilization, for analysis using single cycle kinetics all 4-5 concentrations of Pvd were applied consecutively in ascending order before the dissociation was monitored. For analysis using multi cycle kinetics 4 dilutions of Pvd were applied, each followed a dissociation phase. All measurements were performed at 25° C. […] Data were evaluated with Biacore T200 Evaluation software (V 1.0). Double referencing was used. A 1:1 Binding model was used to fit the raw data.
(§7) Subsequently, 5 μg/mL of mutein or the negative control solution in 10 mM acetate pH 4.0 was applied at a flow rate of 10 μl/min until a high immobilization level of approximately 2000 RU was achieved. Residual activated groups were quenched with ethanolamine. The reference channels were treated with EDC/NHS following ethanolamine (blank immobilization).
In the SPR affinity assay, biotinylated muteins and negative control were captured on a sensor chip CAP using the Biotin CAPture Kit (GE Healthcare), wherein the Sensor Chip CAP is pre-immobilized with an ssDNA oligo. Undiluted Biotin CAPture Reagent (streptavidin conjugated with the complementary ss-DNA oligo) was applied at a flow rate of 2 μl/min for 300 s. Subsequently, 20 μg/ml to 100 μg/mL of biotinylated muteins or fusion molecule negative control were applied for 300 s at a flow rate of 5 μl/min. The reference channel was loaded with Biotin CAPture Reagent only. To determine the binding affinity, four dilutions of the respective Pvd were prepared in HBS-EP+ buffer (GE Healthcare) and applied to the chip surface. Applying a flow rate of 30 μl/min, a single cycle kinetics approach was used with a sample contact time of 180 s and a dissociation time of 1800-2400 s. […] After ligand immobilization, the four concentrations of Pvd were applied consecutively in ascending order before the dissociation was monitored. All measurements were performed at 25° C. […] Data were evaluated with Biacore T200 Evaluation software (V 1.0). Double referencing was preformed. A 1:1 binding model was used to fit the raw data.

[16] = target: hNGAL muteins from affinity optimization of SEQ ID NO: 56 (Homo sapiens, UniProt P80188); assay: Solution binding ELISA
hNGAL muteins from affinity optimization of SEQ ID NO: 56, sequence (P80188 21-198, stated change not applied): as the sequence (P80188 21-198, stated change not applied) above
Protocol: as §1, §2, §3, §4

[17] = target: T14, hNGAL (human lipocalin 2, parent wild type SEQ ID NO: 1) mutein SEQ ID NO: 36 (Homo sapiens, UniProt P80188, A60T/C107S/D97H/K145I/K154W/K93R/L123T/L56V/L90R/N85D/Q69G/R101D/R92I/S147R/S88D/T74A/W99Y/Y126Q/Y152I/Y72N); assay: Surface plasmon resonance (Biacore T200); format: binding; conditions: SPR, 25° C., Table 2B
T14 construct: made in house; host or cells: E. coli
T14 sequence (P80188 21-198 with the stated changes): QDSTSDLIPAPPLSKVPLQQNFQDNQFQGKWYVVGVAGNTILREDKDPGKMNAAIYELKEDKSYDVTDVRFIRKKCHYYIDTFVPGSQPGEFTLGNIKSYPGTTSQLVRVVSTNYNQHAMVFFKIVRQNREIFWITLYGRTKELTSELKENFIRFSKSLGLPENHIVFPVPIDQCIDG
Protocol: as §6
In the SPR affinity assay, biotinylated muteins and negative control were captured on a sensor chip CAP using the Biotin CAPture Kit (GE Healthcare): Sensor Chip CAP is pre-immobilized with an ssDNA oligo. Undiluted Biotin CAPture Reagent (streptavidin conjugated with the complementary ss-DNA oligo) was applied at a flow rate of 2 μl/min for 300 s. Subsequently, 1 μg/ml to 100 μg/mL of biotinylated muteins or negative control were applied for 300 s at a flow rate of 5 μl/min. […]
Applying a flow rate of 30 μl/min, a single cycle or multi cycle kinetics approach was used with a sample contact time of 120-180 s and a dissociation time of 900-2400 s. […] After ligand immobilization, for analysis using single cycle kinetics all 4-5 concentrations of Pvd were applied consecutively in ascending order before the dissociation was monitored. […] Data were evaluated with Biacore T200 Evaluation software (V 1.0). […]
In the SPR affinity assay, biotinylated muteins and negative control were captured on a sensor chip CAP using the Biotin CAPture Kit (GE Healthcare), wherein the Sensor Chip CAP is pre-immobilized with an ssDNA oligo. […] After ligand immobilization, the four concentrations of Pvd were applied consecutively in ascending order before the dissociation was monitored. […] Data were evaluated with Biacore T200 Evaluation software (V 1.0). […]

[18] = target: T15, hNGAL (human lipocalin 2, parent wild type SEQ ID NO: 1) mutein SEQ ID NO: 62 (Homo sapiens, UniProt P80188, A60Q/C107S/D65G/D97L/I61W/K145F/K154F/K66R/K93I/L123G/L56H/L90D/N85D/Q69R/R101T/R92A/S147I/S88D/W99R/Y120H/Y126G/Y152A/Y72W); assay: Surface plasmon resonance (Biacore T200), CM5 chip; format: binding; conditions: SPR, high concentrations (≥1 μM)
T15 construct: made in house
T15 sequence (P80188 21-198 with the stated changes): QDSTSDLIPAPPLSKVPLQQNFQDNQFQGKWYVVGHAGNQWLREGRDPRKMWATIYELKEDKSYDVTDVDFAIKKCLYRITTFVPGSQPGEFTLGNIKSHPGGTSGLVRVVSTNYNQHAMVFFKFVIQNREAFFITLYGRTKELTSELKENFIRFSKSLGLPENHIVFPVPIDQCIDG
Protocol: as §7
The binding assay was carried out with a contact time of 180 s, dissociation times of 1200-1800 s and applying a flow rate of 30 μl/min. Measurements were performed at 25° C. Regeneration of the immobilized mutein surface was achieved by three consecutive injections of 10 mM Gly-HCl pH 1.5 (120 s) followed by an extra wash with running buffer and a stabilization period. Data were evaluated with Biacore T200 Evaluation software (V 1.0). Double referencing was used. The 1:1 Binding model was used to fit the raw data.
Subsequently, 5 μg/mL of mutein or the negative control solution in 10 mM acetate pH 4.0 was applied at a flow rate of 10 μl/min until a high immobilization level of approximately 2000 RU was achieved. Residual activated groups were quenched with ethanolamine. The reference channels were treated with EDC/NHS following ethanolamine (blank immobilization). […] The binding assay was carried out with a contact time of 180 s, dissociation times of 1500-1800 s and applying a flow rate of 30 μl/min. Measurements were performed at 25° C. Regeneration of the immobilized mutein surface was achieved by three consecutive injections of 10 mM Gly-HCl pH 1.5 (120 s) followed by an extra wash with running buffer and a stabilization period. Data were evaluated with Biacore T200 Evaluation software (V 1.0). Double referencing was used. The 1:1 Binding model was used to fit the raw data.

[19] = target: hNGAL (human lipocalin 2), wild type, SEQ ID NO: 1 (Homo sapiens, UniProt P80188); conditions: cited from earlier work
hNGAL (human lipocalin 2), wild type, SEQ ID NO: 1, sequence (P80188 21-198): as the sequence (P80188 21-198, stated change not applied) above

Row | Compound | IC50 [1] | IC50 [2] | IC50 [3] | IC50 [4] | IC50 [5] | IC50 [6] | IC50 [7] | IC50 [8] | IC50 [9] | IC50 [10] | Kd [11] | affinity (in words) [12] | affinity (in words) [13] | other results
1 | C[C@@H](O)[C@@H](NC(=O)CNC(=O)[C@H](CCCN)NC(=O)[C@@H](CCCN(O)C=O)NC(=O)[C@@H](CO)NC(=O)[C@@H]1CCNc2c(NC(=O)C(=O)CCC(=O)O)cc3cc(O)c(O)cc3[n+]21)C(=O)N[C@@H](CO)C(=O)N[C@H]1CCCN(O)C1=O [Pvd II aKG (−Fe), Pvd type II α-ketoglutaryl] ({Butanoyl(2-oxo,4-COOH)}-[X1][dS][dOrn(N5-OH,N5-CHO)][Orn]G[d(aThr)]S-X3) | 34 nM | 89 nM | 0.75 nM | 1.4 nM | 1.65 nM | 1.6 nM | 2.85 nM | 0.64 nM | 1.2 nM | 0.81 nM | 3.27 nM |  |  | 
2 | CN1C([C@H]2CSC(c3ccccc3O)=N2)SC[C@H]1C(=O)O (stereo partly drawn) [pch (−Fe), pyochelin] |  |  |  |  |  |  |  |  |  |  |  | weak affinity or not at all | weak affinity or not at all | improved affinity ([14]; compared with SEQ ID NO: 55): more than 75 fold
3 | CN1C([C@H]2CSC(c3ccccc3O)=N2)SC[C@H]1C(=O)O.[Fe+3] (stereo partly drawn) [pch (+Fe), pyochelin] |  |  |  |  |  |  |  |  |  |  |  | two- to three digit nM affinity | two- to three digit nM affinity | binding ([15]; SPR, analyte at 200 nM): absence of binding; affinity (in words) [14]: single digit nM affinity; affinity (in words) [16]: no or weak affinity
4 | C[C@@H](O)[C@@H](NC(=O)CNC(=O)[C@H](CCCN)NC(=O)[C@@H](CCCN([O-])C=O)NC(=O)[C@@H](CO)NC(=O)[C@@H]1CCNc2c(NC(=O)C(=O)CCC(=O)O)cc3cc([O-])c([O-])cc3[n+]21)C(=O)N[C@@H](CO)C(=O)N[C@H]1CCCN([O-])C1=O.[Fe+3] [Pvd II aKG (+Fe), Pvd type II α-ketoglutaryl] ({Butanoyl(2-oxo,4-COOH)}-[X1][dS][dOrn(N5-OH,N5-CHO)][Orn]G[d(aThr)]S-X2) | 21 nM | 85 nM | 1.3 nM | 1.97 nM | 2.25 nM | 1.9 nM | 3 nM | 1.1 nM | 1.6 nM | 0.88 nM | 1.19 nM |  |  | Kd [17]: 1.97 nM; koff [17]: 5.62e-05 s⁻¹; kon [17]: 28600 M⁻¹ s⁻¹
5 | pyoverdine |  |  |  |  |  |  |  |  |  |  |  |  |  | binding [18]: absence of binding; binding ([15]; Biacore, Example 18): did not show binding; binding [19]: does not bind
